Measurements reported in US11518759B1, “Protacs based on VHL ligand targeting coronavirus 3CL protease and preparation method and application thereof” (SHAANXI PANLONG PHARMACEUTICAL CO., LTD., priority 2022, dated 2022).
pIC50: −log10 of the molar value. Read-outs that look alike come from different tables or passages of the source.

Key:
[1] = target: T1, SARS-CoV-2 3CL^pro (Severe acute respiratory syndrome coronavirus 2 (2019-nCoV) (SARS-CoV-2), UniProt P0DTD1); experiment: biochemical; settings: FRET
[2] = target: T1, SARS-CoV-2 3CL^pro; assay type: cell-based; settings: 24 h, Western Blot

`Cc1ncsc1-c1ccc(CNC(=O)[C@@H]2C[C@@H](O)CN2C(=O)[C@@H](NC(=O)COCCOCCn2cc(Cn3c(=O)[nH]/c(=N\c4cc5cn(C)nc5cc4Cl)n(Cc4cc(F)c(F)cc4F)c3=O)nn2)C(C)(C)C)cc1` [Compound 8] was tested, and the pIC50 ([1]; SARS-CoV-2 3CLpro 0.5 μM, substrate 20 μM, class symbols, read-out: IC50) was over 7.00, the pIC50 ([1]; bound stated, read-out: IC50 values on 3CL^pro) was over 7.00 and the DC50 ([2]; HEK293E cells transfected with 3CLpro plasmid, class symbols) was under 100 nM. For the same compound, the DC50 ([2]; read-out: DC50 values for 3CL^pro, HEK293E cells, bound stated) was under 100 nM.
